Tests used:
Type in all cases: in vivo, SD rats
rats with stroke [1] = assay: Successive treatments starting 4 h after the onset of stroke (Zealonga scores)
Description: The efficacy was represented by neural function scores, and a lower score indicates higher efficacy. A 10% chloral hydrate solution was injected intraperitoneally into male SD rats at a dosage of 400 mg/kg body weight for anesthesia. A longitudinal incision was made at the center of the neck, and the right carotid common artery trunk was dissected (about 3 cm in length). Carotid external artery branches were each dissected and ligated at the hyoid level, and the carotid internal artery was dissected at the swollen part of the neck. The open incision in the carotid internal artery and the proximal end of the common carotid artery were occluded respectively with noninvasive arterial clips, and the distal end of the carotid external artery was ligated. A catheter containing 0.5 mL thrombus suspension in normal saline was inserted in the carotid external artery trunk. At the same time when the clip on the carotid internal artery was released, the 0.5 mL thrombus suspension in normal saline in the catheter slowly flew from the carotid external artery to its proximal end, and then was injected into the arteries in brain through the carotid internal artery. Subsequently, the proximal end of the carotid artery was ligated, the arterial clips on the carotid internal artery and the common carotid artery were released, and blood flow was restored. After the wound was stitched up, 20,000 IU penicillin was intramuscularly injected for prevention from infection. After 4 h, compound Ie in normal saline (at a dosage of 1 μmol/kg, n=1), urokinase in normal saline (at a dosage of 20000 IU/kg, n=6) or tPA in normal saline (at a dosage of 3 mg/kg, n=6) was infused through the tail vein. Infusion of compound Ie in normal saline through rat tail vein was carried out once per day for 6 consecutive days, observed for 7 days. The rats were compared to themselves each day, and evaluated for degree of damage in neural function by the Zealonga method. Alternatively, infusion of urokinase in normal saline through rat tail vein was carried out once per day for two consecutive days, the rats were compared to themselves each day, and evaluated for the degree of damage in neural function by the Zealonga method. Alternatively, infusion of tPA in normal saline through rat tail vein was carried out once per day for two consecutive days, the rats were compared to themselves each day, and evaluated for the degree of damage in neural function by the Zealonga method. A score of 0 indicated no sign of loss in neural function, 1 indicated the front limbs on the undamaged side could not stretch out, 2 indicated walking toward the undamaged side, 3 indicated tail-chasing walking in circles toward the undamaged side, 4 indicated involuntary walking with disturbance of consciousness, and 5 indicated death.

rats with stroke [2] = assay: Successive treatments with 1 μmol/kg Ie starting 6 h after the onset of stroke (Zealonga scores)
Description: The efficacy was represented by neural function scores, and a lower score indicates higher efficacy. A 10% chloral hydrate solution was injected intraperitoneally into male SD rats at a dosage of 400 mg/kg body weight for anesthesia. A longitudinal open incision was made at the center of the neck, and the right common carotid artery trunk was dissected (about 3 cm in length). Carotid external artery branches were each dissected and ligated at the hyoid level, and the carotid internal artery was dissected at the swollen part of the neck. The open incision in the carotid internal artery and the proximal end of the common carotid artery were occluded respectively with noninvasive arterial clips, and the distal end of the carotid external artery was ligated. A catheter containing 0.5 mL thrombus suspension in normal saline was inserted in the carotid external artery trunk. At the same time when the clip on the carotid internal artery was released, the 0.5 mL thrombus suspension in normal saline in the catheter slowly flew from the carotid external artery to its proximal end, and then was injected into the arteries in brain through the carotid internal artery. Subsequently, the proximal end of the carotid artery was ligated, the arterial clips on the carotid internal artery and the common carotid artery were released, and blood flow was restored. After the wound was stitched up, 20,000 IU penicillin was intramuscularly injected for prevention from infection. After 6 h, compound Ie in normal saline (at a dosage of 1 μmol/kg, n=11), urokinase in normal saline (at a dosage of 20000 IU/kg, n=6) or tPA in normal saline (at a dosage of 3 mg/kg, n=6) was infused through the tail vein. Infusion of compound Ie in normal saline through rat tail vein was carried out once per day for 6 consecutive days, observed for 7 days. The rats were compared to themselves each day, and evaluated for the degree of damage in neural function by the Zealonga method. Alternatively, infusion of urokinase in normal saline through rat tail vein was carried out once per day for two consecutive days, the rats were compared to themselves each day, and evaluated for the degree of damage in neural function by the Zealonga method. Alternatively, infusion of tPA in normal saline through rat tail vein was carried out once per day for two consecutive days, the rats were compared to themselves each day, and evaluated for the degree of damage in neural function by the Zealonga method. A score of 0 indicated no sign of loss in neural function, 1 indicated the front limbs on the undamaged side could not stretch out, 2 indicated walking toward the undamaged side, 3 indicated tail-chasing walking in circles toward the undamaged side, 4 indicated involuntary walking with disturbance of consciousness, and 5 indicated death.

rats with stroke [3] = assay: Immediate treatment after stroke onset with different dosages of Ie (Zealonga scores)
Description: A 10% chloral hydrate solution (400 mg/kg) was injected intraperitoneally into male SD rats (250 to 300 g) for anesthesia. An incision of about 2 cm in length was longitudinally made slightly on the right to the center of the neck, and the right carotid common artery, carotid external artery and carotid internal artery were dissected along the margin of the inner side of sternocleidomastoid muscles. The open incision in the carotid internal artery and the proximal end of the common carotid artery were occluded respectively with noninvasive arterial clips. A small incision was made on the carotid external artery, and the distal end of the carotid external artery was ligated. The arterial clip at the proximal end of the carotid external artery was released, and 10 μl blood was drawn before the proximal end of the common carotid artery was again occluded with a noninvasive arterial clip. The 10 μl blood drawn was placed in a 1 mL EP vial and kept at RT for 30 min until coagulation of blood, and then transferred into a −20° C. refrigerator for 1 h to allow solid coagulation. After 1 h, the blood clots were taken out, added into 1 mL saline, and then broken into relatively uniform microthrombus by using a steel spatula. The microthrombus suspension was then transferred into a 1 mL injector until use. At the same time when the clip on the carotid internal artery of the rat was released, the 1 mL thrombus suspension in the injector was slowly injected from the carotid external artery of the rat to its proximal end, and then was injected into the brain of the rat through the carotid internal artery. Subsequently, the proximal end of the carotid external artery was ligated, the arterial clips on the carotid internal artery and the carotid common artery were released, and blood flow was restored. Injection of urokinase in normal saline (positive control group, at a dosage of 20000 IU/kg), tPA in normal saline (positive control group, at a dosage of 3 mg/kg), normal saline (blank control group, at a dosage of 3 mL/kg), or compound Ie in normal saline (at a dosage of 1 μmol/kg, 0.1 μmol/kg or 0.01 μmol/kg) was carried out. 24 h after the rats were awake, the degree of damage in neural function was evaluated by the Zealonga method. A score of 0 indicated no sign of loss in neural function, 1 indicated the front limbs on the undamaged side could not stretch out, 2 indicated walking toward the undamaged side, 3 indicated tail-chasing walking in circles toward the undamaged side, 4 indicated involuntary walking with disturbance of consciousness, and 5 indicated death. As shown in the results, in rats receiving immediate treatment after the onset of stroke with […] compound Ie, the percentage of rats with a neural function score of 0 was 60%, 30%, and 0%, respectively; and the percentage of rats with a neural function score of 1 was 20%, 30%, and 10%, respectively.

[4] = Day 1, tPA 3 mg/kg once per day from 4 h after stroke onset, n=6
[5] = Day 2, tPA 3 mg/kg once per day from 4 h after stroke onset, n=6
[6] = Day 1, tPA 3 mg/kg once per day from 6 h after stroke onset, n=6
[7] = Day 2, tPA 3 mg/kg once per day from 6 h after stroke onset, n=6

tPA: tissue-type plasminogen activator, positive control
number of rats scored Score 1 (rats with stroke [1]; [4]): 2 rats | number of rats scored Score 2 (rats with stroke [1]; [4]): 3 rats | number of rats scored Score 3 (rats with stroke [1]; [4]): 1 rat rats | number of rats scored Score 0 (rats with stroke [1]; [5]): 2 rats | number of rats scored Score 1 (rats with stroke [1]; [5]): 2 rats | number of rats scored Score 2 (rats with stroke [1]; [5]): 1 rat^ rats | rats recovered to have only the sign of slight loss in neural function (rats with stroke [1]; after two doses, tPA 3 mg/kg each day from 4 h after stroke onset, 6 rats): 2 rats | rats died (rats with stroke [1]; out of 6 rats, within 24 h, tPA 3 mg/kg each day from 4 h after stroke onset): 1 | autopsy on the dead rat (rats with stroke [1]; tPA 3 mg/kg each day from 4 h after stroke onset): hemorrhage in internal organs, particularly severe hemorrhage in lungs | number of rats scored Score 0 (rats with stroke [2]; [6]): 1 rat^ rats | number of rats scored Score 1 (rats with stroke [2]; [6]): 1 rat rats | number of rats scored Score 2 (rats with stroke [2]; [6]): 1 rat rats | number of rats scored Score 3 (rats with stroke [2]; [6]): 1 rat rats | number of rats scored Score 4 (rats with stroke [2]; [6]): 2 rats | number of rats scored Score 0 (rats with stroke [2]; [7]): 2 rats | number of rats scored Score 2 (rats with stroke [2]; [7]): 1 rat rats | number of rats scored Score 3 (rats with stroke [2]; [7]): 1 rat rats | rats recovered to have only the sign of slight loss in neural function (rats with stroke [2]; after two doses, tPA 3 mg/kg each day from 6 h after stroke onset, 6 rats): 2 rats | rats died (rats with stroke [2]; out of 6 rats, within 24 h, tPA 3 mg/kg each day from 6 h after stroke onset): 2 | autopsy on the dead rats (rats with stroke [2]; tPA 3 mg/kg each day from 6 h after stroke onset): hemorrhage in internal organs, particularly severe hemorrhage in lungs | percentage of rats with a neural function score of 0 (rats with stroke [3]; 3 mg/kg tPA): 40% | percentage of rats with a neural function score of 1 (rats with stroke [3]; 3 mg/kg tPA): 10% | number of rats scored Score 0 (rats with stroke [3]; tPA 3 mg/kg, n = 10): 4 | number of rats scored Score 1 (rats with stroke [3]; tPA 3 mg/kg, n = 10): 1 | number of rats scored Score 2 (rats with stroke [3]; tPA 3 mg/kg, n = 10): 1 | number of rats scored Score 3 (rats with stroke [3]; tPA 3 mg/kg, n = 10): 3 | number of rats scored Score 4 (rats with stroke [3]; tPA 3 mg/kg, n = 10): 1 | number of rats scored Score 5 (rats with stroke [3]; tPA 3 mg/kg, n = 10): 0

From patent US10806798B2, “Compound with effects of thrombolysis, free radical scavenging and thrombus-targeting” (Shanghai Lumosa Therapeutics Co., Ltd., priority 2012, dated 2020)
